Measurements published in EP4470536A1, “COMPOUND FOR USE IN TREATING FIBRODYSPLASIA OSSIFICANS PROGRESSIVA (FOP)” (Queen's University At Kingston, priority 2023, dated 2024).

Tests used:
ectopic bone formation [1] = assay: Surgical mouse model of heterotopic ossification (rhBMP2-soaked collagen disk), micro-CT; format: in vivo, CD-1 mouse; conditions: for Mean bone volume (mm^3) / percent change in HO volume from vehicle mean (%): oral gavage, 13 days, Day 14
Method: Heterotopic ossification (HO) driven by Bone Morphogenetic Protein (BMP) signaling has been used as a surrogate model for testing the effectiveness of drugs for treating Fibrodysplasia Ossificans Progressiva (FOP) (see, for example, Shimono K., et al. (2011). Nat Med 17, 454-460.). Collagen disks of 1mm in diameter were punched from a thin collagen foam matrix (Avitene™ Ultrafoam™ Collagen Hemostat product #1050050 lot #WBDP0038, from BD, Franklin Lakes, NJ, USA). Disks were impregnated with 1µg total of recombinant human BMP-2 (GenScript, Piscataway, NJ, USA, catalog #Z02913, lot #P50031712) on the day of surgery (5µl of 200ng/µL BMP-2, reconstituted in 20mM acetic acid solution). The rhBMP2-soaked collagen disk was surgically implanted into a small pocket made in the left gastrocnemius muscle of a 6-8 week-old male CD-1 mouse. Beginning on the day following surgery, mice were administered varying doses of compound 1 by oral gavage once daily (QD) or twice daily (every 12h; BID) for 13 days. Doses administered were: vehicle (Corn oil, QD (5M) and BID (3M) dosing or 3% DMSO in Corn oil (2M)), compound 1 18 mg/kg BID, 18 mg/kg QD, 6 mg/kg BID, 4.5 mg/kg BID, and 2 mg/kg BID (6M per group). Palovarotene high and low doses were used as comparators (1.76 mg/kg (4M) and 0.88 mg/kg QD (6M)). The palovarotene high and low doses were selected based on a study for palovarotene (Inubushi, T., et al. (2018). "Palovarotene Inhibits Osteochondroma Formation in a Mouse Model of Multiple Hereditary Exostoses." J Bone Miner Res 33(4): 658-666.), using oral treatment of mice. The inventors also verified the dose selection based on pharmacokinetic (PK) data generated in-house for palovarotene IP (intraperitoneal) and PO (oral) treatment by using the doses for IP treatment from Lees-Shepard, J. B., et al. (2018).
At the study endpoint (Day 14: 16-30 hours after final compound treatment) left hindlimbs were removed and submitted to micro-CT (micro-computed tomography) imaging. Using this preclinical surgical model, the amount of resulting ectopic bone formation after 14 days was visualized for each of the treatment groups (Figure 6). The highly enhancing regions seen within the gastrocnemius muscle corresponded to the amount of ectopic bone formation generated at the site of collagen disk implantation, following 14 days of vehicle or drug treatment.
The hindlimbs obtained in Example 6 above were submitted to micro-CT imaging. CT images were acquired using a VECTor^4CT pre-clinical scanner (MILabs B.V., Utrecht, Netherlands) equipped with a cone beam X-ray CT system. Scans were carried out with an acceleration voltage of 50 kVp and an X-ray tube current of 430 µA in accurate focus mode to obtain 3600 projections over a 360° scan. With a 40 ms exposure time per step, the total scan procedure took about 5 minutes with an estimated radiation dose of 3077 mGy. CT images were consequently processed using MILabs reconstruction software implementing a voxel size of 20 µm and a Hann projection filter of 25 µm to generate 3-dimensional CT images. For quantification, CT images were converted to DICOM® files using PMOD 3.9 software (PMOD Technologies Ltd., Zurich, Switzerland) for rendering using RadiAnt DICOM Viewer 4.2 software (Medixant, Poznań, Poland). The region-of-interest for all hindlimbs, reconstructed from DICOM files, was defined by outlining sites of ectopic ossification. Analysis of total ectopic bone volume was conducted via automated processes using the AnalyzePro software with the Bone Microarchitecture Analysis (BMA) add-on (AnalyzeDirect, Overland Park, Kansas). This software generates bone volume measurements from the defined area, as described by Bouxsein et al (2010). Journal of Bone and Mineral Research, 25(7), 1468-1486. Using this preclinical surgical model, the ability of compound 1 to inhibit HO (percentage from vehicle), as compared to palovarotene, was assessed and is shown in Figure 7 and in Table 1 below.

ectopic bone formation [2] = assay: Genetic mouse model of FOP, pinch injury-induced ectopic bone formation, micro-CT; format: in vivo, Acvr1^(cR206H/+);Pdgfra-Cre+ mice; conditions: for Mean ectopic bone volume D14 (mm^3) / Mean ectopic bone volume D14 [percent change from vehicle]: day 14; for Mean ectopic bone volume D22 (mm^3) / Mean ectopic bone volume D22 [percent change from vehicle]: day 22
Source text: Acvr1^(cR206H/+) mice were obtained from the International Fibrodysplasia Ossificans Progressiva Association (IFOPA, North Kansas City, MO, USA). These animals harbour a Cre recombinase-inducible Acvr1 transgenic allele, which causes a switch from wild-type mouse ACVR1 protein expression to that of a chimeric mouse/human protein containing the R206H mutation seen in >95% of FOP patients. These animals were intercrossed with Pdgfra-Cre expressing mice (C57BL/6-Tg(PDGFRA-cre)1Clc/J mice, available through The Jackson Laboratory, Bar Harbor, ME, USA) which activates Cre recombination in fibro-adipogenic precursors, currently believed to be the cells of origin for FOP (Lees-Shepard, J.B., et al (2018) Nat Commun 9, 471.). Resulting study animals (ACVR1^(R206H/+);Pdgfra-Cre+) are susceptible to injury-induced ectopic bone formation. These animals were subjected to a bilateral gastrocnemius pinch procedure under anaesthesia, whereby a Halsted-mosquito hemostat (product#13008-12, Fine Science Tools Inc., North Vancouver, BC, Canada) is used to compress the gastrocnemius muscle, at its widest part, to approximately 2mm for 5s, and then released. This injury elicits robust ectopic bone formation within 10-14 days (for description of procedure see, Lyu, H., et al. (2021). Biomedicines 9(6).). […] Micro-CT imaging was performed on days 14 (under anaesthesia) and at study termination (day 22), as outlined above in Example 7. Sites of ectopic bone formation in the area of the injury were volumetrically quantified using Class stratification in Imalytics Preclinical software (version 3.0.2.3, Gremse-IT GmbH, Aachen, Germany) from DICOM renderings. Using this model, the utility of compound 1 in inhibiting bone formation in a genetic mouse model of FOP was illustrated (see Figure 11 and Table 3 below). Table 3. Effect of different doses of compound 1 on mean ectopic bone volume at 14 and 22 days following initiation of treatment

CC(C)(C)c1cccc(-c2cc3cc(/C=C/C(=O)O)ccc3[nH]2)c1 [Compound 1, (E)-3-(2-(3-(tert-butyl)phenyl)-1H-indol-5-yl)acrylic acid]
Mean bone volume (mm^3) (ectopic bone formation [1]; 2mg/kg BID): 0.920 mm^3
percent change in HO volume from vehicle mean (%) (ectopic bone formation [1]; 2mg/kg BID): -52.5%
Mean bone volume (mm^3) (ectopic bone formation [1]; 4.5mg/kg BID): 1.205 mm^3
percent change in HO volume from vehicle mean (%) (ectopic bone formation [1]; 4.5mg/kg BID): -37.8%
Mean bone volume (mm^3) (ectopic bone formation [1]; 6mg/kg BID): 0.212 mm^3
percent change in HO volume from vehicle mean (%) (ectopic bone formation [1]; 6mg/kg BID): -89.1%
Mean bone volume (mm^3) (ectopic bone formation [1]; 18mg/kg BID): 0.035 mm^3
percent change in HO volume from vehicle mean (%) (ectopic bone formation [1]; 18mg/kg BID): -98.2%
Mean bone volume (mm^3) (ectopic bone formation [1]; 18mg/kg QD): 0.436 mm^3
percent change in HO volume from vehicle mean (%) (ectopic bone formation [1]; 18mg/kg QD): -77.5%
ectopic bone formation (ectopic bone formation [1]; 2 to 18 mg/kg, versus vehicle, 14 days): dose-dependent decrease in ectopic bone formation
Mean ectopic bone volume D14 (mm^3) (ectopic bone formation [2]; 2mg/kg BID): 2.92 ± 3.76 mm^3
Mean ectopic bone volume D14 [percent change from vehicle] (ectopic bone formation [2]; 2mg/kg BID): -76.9%
Mean ectopic bone volume D22 (mm^3) (ectopic bone formation [2]; 2mg/kg BID): 2.62 ± 4.36 mm^3
Mean ectopic bone volume D22 [percent change from vehicle] (ectopic bone formation [2]; 2mg/kg BID): -77.9%
Mean ectopic bone volume D14 (mm^3) (ectopic bone formation [2]; 4mg/kg BID): 0.20 ± 0.47 mm^3
Mean ectopic bone volume D14 [percent change from vehicle] (ectopic bone formation [2]; 4mg/kg BID): -98.5%
Mean ectopic bone volume D22 (mm^3) (ectopic bone formation [2]; 4mg/kg BID): 0.00 ± 0.00 mm^3
Mean ectopic bone volume D22 [percent change from vehicle] (ectopic bone formation [2]; 4mg/kg BID): -100%
Mean ectopic bone volume D14 (mm^3) (ectopic bone formation [2]; 7.5mg/kg BID): 0.31 ± 0.45 mm^3
Mean ectopic bone volume D14 [percent change from vehicle] (ectopic bone formation [2]; 7.5mg/kg BID): -97.5%
Mean ectopic bone volume D22 (mm^3) (ectopic bone formation [2]; 7.5mg/kg BID): 0.07 ± 0.18 mm^3
Mean ectopic bone volume D22 [percent change from vehicle] (ectopic bone formation [2]; 7.5mg/kg BID): -99.4%
Mean ectopic bone volume D14 (mm^3) (ectopic bone formation [2]; 10mg/kg BID): 1.28 ± 2.23 mm^3
Mean ectopic bone volume D14 [percent change from vehicle] (ectopic bone formation [2]; 10mg/kg BID): -89.9%
Mean ectopic bone volume D22 (mm^3) (ectopic bone formation [2]; 10mg/kg BID): 1.40 ± 2.65 mm^3
Mean ectopic bone volume D22 [percent change from vehicle] (ectopic bone formation [2]; 10mg/kg BID): -88.2%
